“And” between values parts separate entries of the source, which are not always exact repeats. Equal entries are not always repeated.
Biological target: human PSMA (Homo sapiens (Human), UniProt Q04609)
Assay: Enzymatic assay for in vitro evaluation of PSMA inhibitors (fluorescent assay of PSMA activity, NAAG substrate, OPA detection of glutamate)
Format: biochemical
Settings: for PSMA Blkg % (10 μM): compound at 10 μM

human PSMA, sequence (Q04609 whole entry): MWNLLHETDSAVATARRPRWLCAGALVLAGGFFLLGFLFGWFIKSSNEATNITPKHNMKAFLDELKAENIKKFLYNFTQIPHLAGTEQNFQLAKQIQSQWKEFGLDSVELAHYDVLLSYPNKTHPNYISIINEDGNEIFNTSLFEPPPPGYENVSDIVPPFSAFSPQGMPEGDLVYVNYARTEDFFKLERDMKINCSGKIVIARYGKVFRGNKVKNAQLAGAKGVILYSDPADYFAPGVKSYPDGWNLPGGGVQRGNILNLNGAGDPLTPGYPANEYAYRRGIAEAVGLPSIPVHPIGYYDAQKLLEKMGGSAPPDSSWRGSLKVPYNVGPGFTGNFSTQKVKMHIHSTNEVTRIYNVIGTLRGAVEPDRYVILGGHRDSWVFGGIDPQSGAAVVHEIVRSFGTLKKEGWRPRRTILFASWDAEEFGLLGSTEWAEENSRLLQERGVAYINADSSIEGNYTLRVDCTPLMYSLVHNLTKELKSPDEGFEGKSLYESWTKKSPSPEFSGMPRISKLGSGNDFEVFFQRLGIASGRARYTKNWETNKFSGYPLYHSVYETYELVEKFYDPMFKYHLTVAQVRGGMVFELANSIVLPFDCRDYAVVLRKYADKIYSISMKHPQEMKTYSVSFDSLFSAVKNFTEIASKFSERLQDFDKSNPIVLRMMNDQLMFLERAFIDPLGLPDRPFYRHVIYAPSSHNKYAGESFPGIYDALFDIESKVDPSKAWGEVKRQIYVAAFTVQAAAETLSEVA

Compound | Ki [µM] | PSMA Blkg % (1.0 μM) | PSMA Blkg % (10 μM) [%]
O=C(O)CC[C@H](NC(=O)[C@H](CC(=O)O)NC(=O)CCCNC(=O)c1cc(C(=O)NCCCC(=O)N[C@@H](CC(=O)O)C(=O)N[C@@H](CCC(=O)O)C(=O)O)cc([N+](=O)[O-])c1)C(=O)O [P293, (2S,2′S)-2,2′-(((2S,2′S)-2,2′-((4,4′-((5-Nitroisophthaloyl)bis(azanediyl))bis(butanoyl))-bis(azanediyl))bis(3-carboxypropanoyl))bis(azanediyl))dipentanedioic Acid] | – | 45% and 90% | –
O=C(O)CC[C@@H](NC(=O)N[C@@H](CCCCNC(=O)OCc1ccccc1)C(=O)O)C(=O)O [P295, (9S,13R)-3,11-Dioxo-1-phenyl-2-oxa-4,10,12-triazapentadecane-9,13,15-tricarboxylic Acid] | – | 45% | –
O=C(O)CC[C@H](NC(=O)C[C@@H](NC(=O)CCCCCNC(=O)c1cc(C(=O)NCCCCCC(=O)N[C@H](CC(=O)N[C@@H](CCC(=O)O)C(=O)O)C(=O)O)cc([N+](=O)[O-])c1)C(=O)O)C(=O)O [P296, (2S,2′S)-2,2′-(((3R,3′R)-3,3′-((6,6′-((5-nitroisophthaloyl)bis(azanediyl))bis(hexanoyl))-bis(azanediyl))bis(3-carboxypropanoyl))bis(azanediyl))dipentanedioic Acid] | – | 72% | –
O=C(O)CC[C@@H](NC(=O)N[C@@H](CCCCNC(=O)c1cc(C(=O)NCCCC[C@H](NC(=O)N[C@H](CCC(=O)O)C(=O)O)C(=O)O)cc(-n2cc(CCCF)nn2)c1)C(=O)O)C(=O)O [P297, (2R,2′R)-2,2′-(((((1S,1′S)-((5-(4-(3-Fluoropropyl)-1H-1,2,3-triazol-1-yl)isophthaloyl)-bis(azanediyl))bis(1-carboxypentane-5,1-diyl))bis(azanediyl))bis(carbonyl))-bis(azanediyl))dipentanedioic Acid] | – | 31% | –
O=C(O)CC[C@H](NC(=O)C[C@@H](NC(=O)CCCNC(=O)c1cc(C(=O)NCCCC(=O)N[C@H](CC(=O)N[C@@H](CCC(=O)O)C(=O)O)C(=O)O)cc([N+](=O)[O-])c1)C(=O)O)C(=O)O [P298, (2S,2′S)-2,2′-(((3R,3′R)-3,3′-((4,4′-((5-Nitroisophthaloyl)bis(azanediyl))bis(butanoyl))-bis(azanediyl))bis(3-carboxypropanoyl))bis(azanediyl))dipentanedioic Acid] | – | 88% | –
(S)-2-(3-((S)-1-Carboxy-5-(4-(2-fluoroethoxy)benzamido)pentyl)ureido)pentanedioic Acid [P160] | 0.219 | – | 88

More lines, now with the values ahead:

Ki [µM] | PSMA Blkg % (1.0 μM) | PSMA Blkg % (10 μM) [%] | Compound
0.005 | 95% | – | O=C(O)CC[C@H](NC(=O)N[C@@H](Cc1ccc(NC(=O)CCC(CCC(=O)Nc2ccc(C[C@H](NC(=O)N[C@@H](CCC(=O)O)C(=O)O)C(=O)O)cc2)(CCC(=O)Nc2ccc(C[C@H](NC(=O)N[C@@H](CCC(=O)O)C(=O)O)C(=O)O)cc2)NC(=O)Cn2cc(CCCF)nn2)cc1)C(=O)O)C(=O)O [P291, (2S,2′S)-2,2′-(((((1S,1′S)-((((4S)-4-(3-((4-((2S)-2-Carboxy-2-(3-(1,3-dicarboxypropyl)-ureido)ethyl)phenyl)amino)-3-oxopropyl)-4-(2-(4-(3-fluoropropyl)-1H-1,2,3-triazol-1-yl)acetamido)heptanedioyl)bis(azanediyl))bis(4,1-phenylene))bis(1-carboxyethane-2,1-diyl))bis(azanediyl))bis(carbonyl))bis(azanediyl))dipentanedioic Acid]
– | 99% | – | NCCOCCOCCOCCOCc1cn(-c2cc(C(=O)Nc3ccc(C[C@H](NC(=O)N[C@@H](CCC(=O)O)C(=O)O)C(=O)O)cc3)cc(C(=O)Nc3ccc(C[C@H](NC(=O)N[C@@H](CCC(=O)O)C(=O)O)C(=O)O)cc3)c2)nn1 [P294, (2S,2′S)-2,2′-(((((1S,1′S)-(((5-(4-(13-Amino-2,5,8,11-tetraoxatridecyl)-1H-1,2,3-triazol-1-yl)isophthaloyl)bis(azanediyl))bis(4,1-phenylene))bis(1-carboxyethane-2,1-diyl))-bis(azanediyl))bis(carbonyl))bis(azanediyl))dipentanedioic Acid]
– | – | 77 | (9S,13S)-9-Carboxy-13-((1-(2-fluoroethyl)-1H-1,2,3-triazol-4-yl)methyl)-3,11-dioxo-1-phenyl-2-oxa-4,10,12-triazatetradecan-14-oic Acid [P187]
